Source: patent publication US20110251238A1, “PPAR AGONIST COMPOSITIONS AND METHODS OF USE” (BIOPHARMED, priority 2008, published 2011)
Converted amounts (≈) assume the structure as drawn. Where two headings read alike, the source gives them in different places. Blank lines part the entries; values can stand above or below the molecule they belong to.

Experiments:
[1] = test system: KB3 (epitheloid lung cancer) cell lines; assay: Cell growth inhibition (cytotoxicity), MTS assay, KB3 cell line; type: cell-based; settings: MTS assay, triplicate, read-out: KB3 IC50
Description: Cell growth inhibition was determined by the MTS assay; the number of viable cells were proportional to the extent of formazan production in the presence or absence of drugs. […]

[2] = test system: A549 (human lung adenocarcinoma epithelial); assay: Growth inhibition, MTT colorimetric assay, A549; type: cell-based; settings: carcinoma, 3 days with drug, means of six values, unit inferred, read-out: IC50 A549
Description: (§1) A549 (human lung adenocarcinoma epithelial), BxPC3 (pancreatic cancer), LoVo (colon cancer), MCF-7 (epithelial breast cancer), PC3 (human prostate cancer), Hs683 (human glioma), T98G (glioblastoma), U373 (human glioblastoma-astrocytoma), U138 MG (human glioma), epithelial-like), SKMEL28 (human melanoma), B16-F10 (mouse melanoma) and RhTP (rhabdomyosarcoma) cell lines were cultured in presence of the drugs for 3 days. The cytotoxic activity is expressed as (IC50). Inhibition of cell proliferation measured by the MTT colorimetric assay. The values reported in Table 4 are means of six distinct values.

[3] = test system: BxPC3 (pancreatic cancer); assay: Growth inhibition, MTT colorimetric assay, BxPC3; type: cell-based, human; settings: carcinoma, 3 days with drug, means of six values, unit inferred, read-out: IC50 BxPC3
Description: Cells are cultured at 37° C. in Falcon culture dishes, incubated at 5% CO2 in a suitable culture medium available from Invitrogen Corp. Anti-proliferative activity is determined by an MTT assay (bromide of (3-[4,5-dimethylthiazolium-yl]diphenyltetrazolium)). According to one standard protocol, absorbance is measured at 570 nm (see Dumont et al. (2007) Neoplasia 9: 766-776.
as §1

[4] = test system: LoVo (colon cancer); assay: Growth inhibition, MTT colorimetric assay, LoVo; type: cell-based; settings: carcinoma, 3 days with drug, means of six values, unit inferred, read-out: IC50 LoVo
Description: as §1

[5] = test system: MCF-7 (epithelial breast cancer); assay: Growth inhibition, MTT colorimetric assay, MCF7; type: cell-based; settings: carcinoma, 3 days with drug, means of six values, unit inferred, read-out: IC50 MCF7
Description: as §1

[6] = test system: PC3 (human prostate cancer); assay: Growth inhibition, MTT colorimetric assay, PC3; type: cell-based; settings: carcinoma, 3 days with drug, means of six values, unit inferred, read-out: IC50 PC3
Description: as §1, with “Compounds that met the criteria for activity on KB3 cells were further tested for drug growth inhibitory activity in 5 carcinoma, 6 glioma and 3 melanoma cell lines, shown in Table 4. A549” for “A549”, “values. The standard errors are <5% as compared to the mean values.” for “values.”

[7] = test system: Hs683 (human glioma); assay: Growth inhibition, MTT colorimetric assay, HS683; type: cell-based; settings: glioma, 3 days with drug, means of six values, unit inferred, read-out: IC50 HS683
Description: as §1

[8] = test system: T98G (glioblastoma); assay: cells; type: cell-based; settings: glioma, 3 days with drug, means of six values, unit inferred, read-out: IC50 T98G
Description: as §1

[9] = test system: U373 (human glioblastoma-astrocytoma); assay: Growth inhibition, MTT colorimetric assay, U373; type: cell-based; settings: glioma, 3 days with drug, means of six values, unit inferred, read-out: IC50 U373
Description: as §1, with “Compounds that met the criteria for activity on KB3 cells were further tested for drug growth inhibitory activity in 5 carcinoma, 6 glioma and 3 melanoma cell lines, shown in Table 4. A549” for “A549”, “values. The standard errors are <5% as compared to the mean values.” for “values.”

[10] = test system: U138 MG (human glioma); assay: Growth inhibition, MTT colorimetric assay, U138; type: cell-based; settings: glioma, 3 days with drug, means of six values, unit inferred, read-out: IC50 U138
Description: as §1, with “Compounds that met the criteria for activity on KB3 cells were further tested for drug growth inhibitory activity in 5 carcinoma, 6 glioma and 3 melanoma cell lines, shown in Table 4. A549” for “A549”, “values. The standard errors are <5% as compared to the mean values.” for “values.”

[11] = test system: GL19; assay: Growth inhibition, MTT colorimetric assay, GL19; type: cell-based; settings: 3 days with drug, means of six values, unit inferred, read-out: IC50 GL19
Description: as §1, with “Compounds that met the criteria for activity on KB3 cells were further tested for drug growth inhibitory activity in 5 carcinoma, 6 glioma and 3 melanoma cell lines, shown in Table 4. A549” for “A549”, “values. The standard errors are <5% as compared to the mean values.” for “values.”

[12] = test system: RhTP (rhabdomyosarcoma); assay: Growth inhibition, MTT colorimetric assay, RhTp; type: cell-based; settings: 3 days with drug, means of six values, unit inferred, read-out: IC50 RhTp
Description: as §1, with “Compounds that met the criteria for activity on KB3 cells were further tested for drug growth inhibitory activity in 5 carcinoma, 6 glioma and 3 melanoma cell lines, shown in Table 4. A549” for “A549”, “values. The standard errors are <5% as compared to the mean values.” for “values.”

[13] = test system: KaKa; assay: Growth inhibition, MTT colorimetric assay, KaKa; type: cell-based; settings: 3 days with drug, means of six values, unit inferred, read-out: IC50 KaKa
Description: as §1, with “Compounds that met the criteria for activity on KB3 cells were further tested for drug growth inhibitory activity in 5 carcinoma, 6 glioma and 3 melanoma cell lines, shown in Table 4. A549” for “A549”, “values. The standard errors are <5% as compared to the mean values.” for “values.”

[14] = test system: Host; assay: Growth inhibition, MTT colorimetric assay, Host; type: cell-based; settings: 3 days with drug, means of six values, unit inferred, read-out: IC50 Host
Description: as §1, with “Compounds that met the criteria for activity on KB3 cells were further tested for drug growth inhibitory activity in 5 carcinoma, 6 glioma and 3 melanoma cell lines, shown in Table 4. A549” for “A549”, “values. The standard errors are <5% as compared to the mean values.” for “values.”

[15] = test system: SKMEL28 (human melanoma); assay: Growth inhibition, MTT colorimetric assay, SKMEL-28; type: cell-based; settings: melanoma, 3 days with drug, means of six values, unit inferred, read-out: IC50 SKMEL-28
Description: as §1, with “Compounds that met the criteria for activity on KB3 cells were further tested for drug growth inhibitory activity in 5 carcinoma, 6 glioma and 3 melanoma cell lines, shown in Table 4. A549” for “A549”, “values. The standard errors are <5% as compared to the mean values.” for “values.”

[16] = test system: B16-F10 (mouse melanoma); assay: Growth inhibition, MTT colorimetric assay, B16F10; type: cell-based; settings: melanoma, 3 days with drug, means of six values, unit inferred, read-out: IC50 B16F10
Description: as §1, with “Compounds that met the criteria for activity on KB3 cells were further tested for drug growth inhibitory activity in 5 carcinoma, 6 glioma and 3 melanoma cell lines, shown in Table 4. A549” for “A549”, “values. The standard errors are <5% as compared to the mean values.” for “values.”

[17] = test system: bloodstream forms of T. brucei and T. congolense; assay: Trypanocidal activity in vitro, Alamar Blue assay; type: cell-based, Trypanosoma brucei and T. congolense; settings: 48 h total incubation; for GI50: 50% growth inhibition, read-out: GI50; for MIC: lowest concentration at which all cells were killed, read-out: MIC
Excerpt: Trypanosoma brucei and T. congolense are the causative agents of sleeping sickness in humans and nagana in cattle, respectively. The protozoan parasites live extracellularlyin blood and tissue fluids of mammals and are transmitted by the bite of infected tsetse flies (Glossina spp.). Here the trypanocidal activity against bloodstream forms of T. brucei and T. congolense of bis-8-hydroxy quinoline N-substituted benzylamines derivatives was investigated in vitro, according to methods described in. Steverding et al. (2006) Kinetoplastid Biology and Disease, 5(3): 1-5; Hongmance et al., (2007) Antimicrob. Agents Chemother. 51:1105-1106; and Zhao et al., (2005) Bio-org. Med. Chem.; 13: 3921-3926. Cells were seeded into 96-well tissue culture plates in 200 μl medium containing various concentrations of analogues dissolved in H2O. The controls contained the respective solvent alone. […] After 24 h (trypanosomes) or 43 h (HL-60) incubation, 20 μl of the colorimetric viability indicator Alamar Blue® was added to each well. The cells were incubated for a further 24 h (trypanosomes) or 5 h (HL-60) so that the total incubation time was 48 h. Then, the plates were read on a Dynatech MR5000ELISA reader (Denkendorf, Germany),using a test wavelength of 550 nm and a reference wave length of 630 nm. Each test was set up in duplicate and repeated three times. For comparison, the general cytotoxicity of the compounds was assayed with human myeloid leukaemia HL-60 cells. The anti-trypanosomal activities and the general cytotoxicities of the new analogues were evaluated using the Alamar Blue® assay.

- melting point: 114 to 116 °C
SMILES: CC(C)(C)OC(=O)N(Cc1cccc(C(F)(F)F)c1)Cc1ccc(O)c2ncccc12 [BPM19,132, Tert-butyl-(8-hydroxyquinolin-5-yl)methyl(3-(trifluoromethyl)benzyl)carbamate]
- IC50 ([1]; KB3, Table 3B): 1000 nM

- melting point: 149 to 152 °C
SMILES: CC(C)(C)OC(=O)N(Cc1cc(C(F)(F)F)cc(C(F)(F)F)c1)Cc1ccc(O)c2ncccc12 [BPM19,190, Tert-butyl-3,5-bis(trifluoromethyl)benzyl((8-hydroxyquinolin-5-yl)methyl)carbamate]
- IC50 ([1]; KB3, Table 3B): 1000 nM

- IC50 ([2]; Homo sapiens, A549, 72 h): 54 nM
- IC50 ([3]; Homo sapiens, BXPC-3, 72 h): 7440 nM
- IC50 ([4]; Homo sapiens, LoVo, 72 h): 91 nM
- IC50 ([5]; Homo sapiens, MCF7, 72 h): 97 nM
- IC50 ([6]; Homo sapiens, 72 h): 258 nM
- IC50 ([7]; Homo sapiens, Hs 683, 72 h): 76 nM
- IC50 ([8]; Homo sapiens, T98G, 72 h): 249 nM
- IC50 ([9]; Homo sapiens, U373 MG, 72 h): 357 nM
- IC50 ([10]; Homo sapiens, U138-MG, 72 h): 95 nM
- IC50 ([12]; 72 h): 97 nM
- IC50 ([15]; Homo sapiens, SK-MEL-28, 72 h): > 10000 nM
- IC50 ([16]; Mus musculus, B16-F10, 72 h): 765 nM
SMILES: Oc1ccc(CN(Cc2ccccc2)Cc2ccc(O)c3ncccc23)c2cccnc12 [BPM18,725, 5,5′-(benzylazanediyl)bis(methylene)diquinolin-8-ol]
- IC50 ([1]; KB3, Table 3A): 20 nM
- IC50 ([11]; GL19, 72 h): 3450 nM
- IC50 ([13]; 72 h): 2430 nM
- IC50 ([14]; 72 h): 2160 nM
- GI50 [17]: 300 ± 10 nM
- MIC [17]: 1 µM (≈ 0.422 µg/mL)

- melting point: 175 to 178 °C
SMILES: Oc1ccc(CN(Cc2ccc(O)c3ncccc23)Cc2ccc(O)c3ncccc23)c2cccnc12 [BPM19,218, 5,5′,5″-nitrilotris(methylene)triquinolin-8-ol]
- IC50 ([1]; KB3, Table 3B): > 10000 nM
- GI50 [17]: 450 ± 100 nM
- MIC [17]: 1 µM (≈ 0.489 µg/mL)

- IC50 [2]: 46 nM
- IC50 [3]: 274 nM
- IC50 [4]: 93 nM
- IC50 [5]: 88 nM
- IC50 [6]: 179 nM
- IC50 [7]: 64 nM
- IC50 [8]: 210 nM
- IC50 [9]: 78 nM
- IC50 [10]: 80 nM
- IC50 [12]: 87 nM
- IC50 [15]: 6380 nM
- IC50 [16]: 98 nM
SMILES: Oc1ccc(CN(Cc2ccccc2C(F)(F)F)Cc2ccc(O)c3ncccc23)c2cccnc12 [BPM19,178, 5,5-(2-(Trifluoromethyl)benzylazanediyl)bis(methylene)diquinolin-8-ol]
- IC50 ([1]; Table 3A): 100 nM
- IC50 [11]: 472 nM
- IC50 [13]: 887 nM
- IC50 [14]: 912 nM
- GI50 [17]: 330 ± 10 nM
- MIC [17]: 1 µM (≈ 0.489 µg/mL)
